Where “and” joins values, the source holds several entries; their conditions need not be identical. Identical values can stand only once. *1 amine or outer side, *2 acyl side, *3 side chain or, on linkers, in order; H or OH if unused. Where a SMILES comes first, the peptide text is derived from it. Side-chain parts run from the residue outwards. [ ]: non-standard residue; d: D form. The star is where a group is joined. C20 diacid = O=C(O)CCCCCCCCCCCCCCCCCCC(=O)*; γGlu = O=C(O)[C@H](CCC(=O)[*:2])N[*:1]; αMeL = CC(C)C[C@](C)(N)C(=O)O; AEEA = NCCOCCOCC(=O)O
Assays:
[1] = Pharmacokinetics in Sprague Dawley rats, single subcutaneous or intravenous dose (incl. 10, 30, 100 nmol/kg dose response); format: in vivo; conditions: for Tmax: read-out: Tmax
[2] = Pharmacokinetics in Yucatan mini-pigs, single subcutaneous or intravenous dose; format: in vivo
Experimental: Plasma concentrations of compounds were determined by LC/MS methods. For each assay, the compound and an internal standard (IS), were extracted from 100% mouse, rat, pig, or monkey plasma (70 μL) using Isopropanol-Methanol. Two distinct layers were formed upon centrifugation with the compound and the IS located in the supernatant layer. An aliquot of the supernatant (150 μL) was transferred to a Waters Sirocco Protein Precipitation Plate. The supernatant was eluted using a positive pressure manifold. The supernatant was mixed with 100-2 Water-Formic acid (400 μL) in a pretreated Sep-Pak tC18 SPE plate and eluted to waste. The peptide and IS were eluted with Acetonitrile-Formic acid (100 μL) in 2 steps (50 μL each step). The elution (40 μL) from SPE plate was mixed with diluent solution (1.875 μL 5× invitrosol and 3.125 μL 1% formic acid in water, 80 μL). A final sample (10 μl) was loaded onto a Xselect CSH C18 IS column (3.5 μm 2.1×20 mm). The column effluent was directed into a Thermo Fisher Scientific Orbitrap (Exploris 240) mass spectrometer for detection and quantitation.
Male Yucatan mini-pigs were administered a single subcutaneous dose or intravenous dose (19 or 99 nmol/kg) of compound in 40 mM Tris-HCl 5% D-mannitol (pH 8) at a volume of 0.01 or 0.05 mL/kg. Blood was collected from each animal at 0.083 (IV only), 0.5, 3, 6, 24, 48, 72, 96, 168, 240, 336, 408, and 504 hours postdose for pharmacokinetic characterization.

[3] = male, Sprague Dawley, rat, plasma, iv, 197 nmol/kg, single intravenous dose 197 nmol/kg, individual animal
[4] = male, Sprague Dawley, rat, plasma, iv, 197 nmol/kg, single intravenous dose 197 nmol/kg, mean
[5] = male, Sprague Dawley, rat, plasma, sc, 197 nmol/kg, single subcutaneous dose 197 nmol/kg, individual animal
[6] = male, Sprague Dawley, rat, plasma, sc, 197 nmol/kg, single subcutaneous dose 197 nmol/kg, mean
[7] = single intravenous dose 197 nmol/kg, male Sprague Dawley rats, individual animal
[8] = single subcutaneous dose 197 nmol/kg, male Sprague Dawley rats, individual animal
[9] = male Yucatan pigs, single subcutaneous dose 99 nmol/kg, individual animal
[10] = male, Yucatan mini-pig, minipig, plasma, iv, 99 nmol/kg, single intravenous dose 99 nmol/kg, mean
[11] = single intravenous dose 99 nmol/kg, male Yucatan pigs, individual animal

clearance [1, 3]: 1.66 mL/h/kg
half-life [1, 3]: 41.7 h
clearance [1, 4]: 1.47 mL/h/kg
half-life [1, 4]: 45.5 h
half-life [1, 5]: 52.8 h
CL/F ([1]; male, Sprague Dawley, rat, plasma, sc, 197 nmol/kg, single subcutaneous dose 197 nmol/kg, individual animal, read-out: CL/F (converted)): 2.35 mL/h/kg
Tmax [1, 5]: 24 h
half-life [1, 6]: 47 h
CL/F ([1]; male, Sprague Dawley, rat, plasma, sc, 197 nmol/kg, single subcutaneous dose 197 nmol/kg, mean, read-out: CL/F (converted)): 2.48 mL/h/kg
Tmax [1, 6]: 24 h
AUC0-inf ([1]; rat, plasma, sc, single subcutaneous dose 197 nmol/kg, male Sprague Dawley rats, mean, read-out: AUC0-inf): 89.9 µM·h
Cmax ([1]; rat, plasma, sc, single subcutaneous dose 197 nmol/kg, male Sprague Dawley rats, mean, read-out: Cmax): 815 nM
AUC0-inf ([1]; rat, plasma, single intravenous dose 197 nmol/kg, male Sprague Dawley rats, mean, read-out: AUC0-inf): 136 µM·h
C0 ([1]; rat, plasma, single intravenous dose 197 nmol/kg, male Sprague Dawley rats, mean, read-out: C0): 4270 nM
CL [1, 7]: 1.30 mL/h/kg and 1.45 mL/h/kg
T1/2 [1, 7]: 45.2 h and 49.6 h
AUC0-inf [1, 8]: 96.8 µM·h and 82.9 µM·h
CL/F [1, 8]: 2.61 mL/h/kg
Cmax [1, 8]: 881 nM and 749 nM
T1/2 [1, 8]: 41.1 h
AUC0-inf ([2]; Yucatan mini-pig, minipig, plasma, sc, male Yucatan pigs, single subcutaneous dose 99 nmol/kg, Mean, read-out: AUC0-inf): 76.4 µM·h
Cmax ([2]; Yucatan mini-pig, minipig, plasma, sc, male Yucatan pigs, single subcutaneous dose 99 nmol/kg, Mean, read-out: Cmax): 259 nM
T1/2 [2, 9]: 292 h and 185 h
Tmax [2, 9]: 168 h
clearance ([2]; male, Yucatan mini-pig, minipig, plasma, iv, 99 nmol/kg, single intravenous dose 99 nmol/kg, individual animal): 0.321 mL/h/kg
clearance [2, 10]: 0.356 mL/h/kg
half-life [2, 10]: 166 h
half-life ([2]; male, Yucatan mini-pig, minipig, plasma, sc, 99 nmol/kg, single subcutaneous dose 99 nmol/kg, Mean): 214 h
CL/F ([2]; male, Yucatan mini-pig, minipig, plasma, sc, 99 nmol/kg, single subcutaneous dose 99 nmol/kg, Mean, read-out: CL/F (converted)): 2.22 mL/h/kg
Tmax ([2]; male, Yucatan mini-pig, minipig, plasma, sc, 99 nmol/kg, single subcutaneous dose 99 nmol/kg, Mean, read-out: Tmax): 72 h
half-life ([2]; male, Yucatan mini-pig, minipig, plasma, sc, 99 nmol/kg, single subcutaneous dose 99 nmol/kg, individual animal): 166 h
AUC0-inf ([2]; minipig, plasma, single intravenous dose 99 nmol/kg, male Yucatan pigs, mean, read-out: AUC0-inf): 285 µM·h
C0 ([2]; minipig, plasma, single intravenous dose 99 nmol/kg, male Yucatan pigs, mean, read-out: C0): 2490 nM
CL [2, 11]: 0.448 mL/h/kg and 0.299 mL/h/kg
T1/2 [2, 11]: 109 h and 126 h and 263 h
SMILES: CC[C@H](C)[C@H](NC(C)=O)C(=O)N[C@H](C(=O)N[C@H](C(=O)N[C@@H](CO)C(=O)N[C@@](C)(CC(C)C)C(=O)N[C@@H](CC(=O)O)C(=O)N[C@@H](C(=O)N1CCC[C@H]1C(=O)N[C@H](C(=O)NCC(=O)N[C@@](C)(CC(C)C)C(=O)N[C@@H](CC(C)C)C(=O)N[C@@H](CCC(N)=O)C(=O)N[C@H](C(=O)N[C@@H](CCCCN)C(=O)N[C@@H](CC(C)C)C(=O)N[C@@H](CCC(=O)O)C(=O)N[C@@H](CCC(N)=O)C(=O)N[C@@H](CCC(=O)O)C(=O)N[C@@H](CCCNC(=N)N)C(=O)N[C@@H](C)C(=O)N[C@@H](CCC(=O)O)C(=O)N[C@@H](CCCCN)C(=O)N[C@@H](C)C(=O)N[C@@H](CCCNC(=N)N)C(=O)N[C@@H](CCC(N)=O)C(=O)N[C@@H](CCC(N)=O)C(=O)N[C@@H](C)C(=O)N[C@@H](CCCCNC(=O)COCCOCCNC(=O)COCCOCCNC(=O)CC[C@H](NC(=O)CCCCCCCCCCCCCCCCCCC(=O)O)C(=O)O)C(=O)N[C@@H](CCC(=O)O)C(=O)N[C@@H](CC(N)=O)C(=O)N[C@H](C(=O)N[C@@H](CCC(=O)O)C(=O)N[C@H](C(=O)N[C@@H](CC(C)C)C(=O)N[C@@H](C)C(=O)N[C@@H](CCC(N)=O)C(=O)N[C@H](C(N)=O)C(C)C)[C@@H](C)CC)[C@@H](C)O)[C@@H](C)CC)[C@@H](C)O)C(C)C)[C@@H](C)O)C(C)C [SEQ ID NO: 29, Ac-IVTS αMeL D (D-Val) PTG αMeL LQIKLEQERAEKARQ QAK((2-[2-(2-Amino-ethoxy)-ethoxy]-acetyl)2-γE-CO-(CH2)18-CO2H)ENTEILAQV-NH2] (Ac-IVTS[αMeL]D[dV]PTG[αMeL]LQIKLEQERAEKARQQAK([AEEA-AEEA-γGlu-C20 diacid])ENTEILAQV-NH2)
AUC0-inf [1, 7]: 119 µM·h and 152 µM·h and 136 µM·h
C0 [1, 7]: 6910 nM and 4840 nM and 1050 nM
AUC0-inf [2, 9]: 128 µM·h and 67.5 µM·h and 33.8 µM·h
CL/F [2, 9]: 1.03 mL/h/kg and 2.06 mL/h/kg and 3.56 mL/h/kg
Cmax [2, 9]: 497 nM and 201 nM and 79.6 nM
AUC0-inf [2, 11]: 307 µM·h and 220 µM·h and 329 µM·h
C0 [2, 11]: 2530 nM and 2560 nM and 2380 nM

Reference: patent publication US20250163119A1, “COMPOUNDS FOR THE TREATMENT OF DIABETES OR OBESITY” (Eli Lilly and Company, priority 2023, published 2025)
